The compounds below were run on HT29 cells (assay: Inhibition of cell necrosis (CCK8 method), induced programmed necrosis of HT29 cells). Settings: Homo sapiens, HT-29; rescue from necrosis induced by TNF-α 20 ng/mL, AT-406 1 μM, Z-VAD-FMK 20 μM; 16-20 hours; CCK-8, OD 450 nm.
Format: cell-based
Summary of the method: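 Rescue from programmed necrosis was scored by CCK-8 absorbance at 450 nm after 16-20 h of TNF-α (20 ng/mL), AT-406 (1 μM) and Z-VAD-FMK (20 μM) at 37 °C, 5% CO2. HT29 cells had received compound 30 min earlier across nine 4-fold dilutions (top 25000 nM final). IC50 came from % inhibition relative to uninduced and induced-only wells.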

SMILES | IC50 [nM]
O=C(Nc1cc(-c2cc(OCCC3CCOCC3)ccc2C(F)(F)F)ncn1)c1nnc(Cc2ccccc2F)[nH]1 [Example 459, 5-(2-fluorobenzyl)-N-(6-(5-(2-(tetrahydro-2H-pyran-4-yl)ethoxy)-2-(trifluoromethyl)phenyl)pyrimidin-4-yl)-4H-1,2,4-triazole-3-carboxamide] | ≤ 100
O=C(Nc1cc(-c2cc(OCCC3CCOCC3)ccc2C(F)(F)F)ncn1)c1nnc(CC2CCCC2)[nH]1 [Example 460, 5-(cyclopentylmethyl)-N-(6-(5-(2-(tetrahydro-2H-pyran-4-yl)ethoxy)-2-(trifluoromethyl)phenyl)pyrimidin-4-yl)-4H-1,2,4-triazole-3-carboxamide] | ≤ 100
O=C(Nc1cc(-c2cc(OCCC3CCOCC3)ccc2C(F)(F)F)ncn1)c1nnc(CC2CCCCC2)[nH]1 [Example 461, 5-(cyclohexylmethyl)-N-(6-(5-(2-(tetrahydro-2H-pyran-4-yl)ethoxy)-2-(trifluoromethyl)phenyl)pyrimidin-4-yl)-4H-1,2,4-triazole-3-carboxamide] | ≤ 100
CC(C)(O)CCCOc1ccc(Cl)c(-c2cc(NC(=O)c3nnc(Cc4ccccc4)[nH]3)ncn2)c1 [Example 462, 5-benzyl-N-(6-(2-chloro-5-((4-hydroxy-4-methylpentyl)oxy)phenyl)pyrimidin-4-yl)-4H-1,2,4-triazole-3-carboxamide] | ≤ 100
CC(C)(O)CCCOc1ccc(Cl)c(-c2cc(NC(=O)c3nnc(Cc4ccccc4F)[nH]3)ncn2)c1 [Example 463, 5-(2-fluorobenzyl)-N-(6-(2-chloro-5-((4-hydroxy-4-methylpentyl)oxy)phenyl)pyrimidin-4-yl)-4H-1,2,4-triazole-3-carboxamide] | ≤ 100
CC(C)(O)CCCOc1ccc(Cl)c(-c2cc(NC(=O)c3nnc(CC4CCCC4)[nH]3)ncn2)c1 [Example 464, 5-(cyclopentylmethyl)-N-(6-(2-chloro-5-((4-hydroxy-4-methylpentyl)oxy)phenyl)pyrimidin-4-yl)-4H-1,2,4-triazole-3-carboxamide] | ≤ 100
CC(C)(O)CCCOc1ccc(Cl)c(-c2cc(NC(=O)c3nnc(CC4CCCCC4)[nH]3)ncn2)c1 [Example 465, 5-(cyclohexylmethyl)-N-(6-(2-chloro-5-((4-hydroxy-4-methylpentyl)oxy)phenyl)pyrimidin-4-yl)-4H-1,2,4-triazole-3-carboxamide] | ≤ 100
O=C(Nc1cc(-c2cc(OCC3CCOCC3)ccc2Cl)ncn1)c1nnc(Cc2ccccc2)[nH]1 [Example 466, 5-benzyl-N-(6-(2-chloro-5-((tetrahydro-2H-pyran-4-yl)methoxy)phenyl)pyrimidin-4-yl)-4H-1,2,4-triazole-3-carboxamide] | ≤ 100
O=C(Nc1cc(-c2cc(OCC3CCOCC3)ccc2Cl)ncn1)c1nnc(Cc2ccccc2F)[nH]1 [Example 467, 5-(2-fluorobenzyl)-N-(6-(2-chloro-5-((tetrahydro-2H-pyran-4-yl)methoxy)phenyl)pyrimidin-4-yl)-4H-1,2,4-triazole-3-carboxamide] | ≤ 100
O=C(Nc1cc(-c2cc(OCC3CCOCC3)ccc2Cl)ncn1)c1nnc(CC2CCCC2)[nH]1 [Example 468, 5-(cyclopentylmethyl)-N-(6-(2-chloro-5-((tetrahydro-2H-pyran-4-yl)methoxy)phenyl)pyrimidin-4-yl)-4H-1,2,4-triazole-3-carboxamide] | ≤ 100
O=C(Nc1cc(-c2cc(OCC3CCOCC3)ccc2Cl)ncn1)c1nnc(CC2CCCCC2)[nH]1 [Example 469, 5-(cyclohexylmethyl)-N-(6-(2-chloro-5-((tetrahydro-2H-pyran-4-yl)methoxy)phenyl)pyrimidin-4-yl)-4H-1,2,4-triazole-3-carboxamide] | ≤ 100
O=C(Nc1cc(-c2cc(OCCC3CCOCC3)ccc2Cl)ncn1)c1nnc(Cc2ccccc2)[nH]1 [Example 470, 5-benzyl-N-(6-(2-chloro-5-(2-(tetrahydro-2H-pyran-4-yl)ethoxy)phenyl)pyrimidin-4-yl)-4H-1,2,4-triazole-3-carboxamide] | ≤ 100
O=C(Nc1cc(-c2cc(OCCC3CCOCC3)ccc2Cl)ncn1)c1nnc(Cc2ccccc2F)[nH]1 [Example 471, N-(6-(2-chloro-5-(2-(tetrahydro-2H-pyran-4-yl)ethoxy)phenyl)pyrimidin-4-yl)-5-(2-fluorobenzyl)-4H-1,2,4-triazole-3-carboxamide] | ≤ 100
O=C(Nc1cc(-c2cc(OCCC3CCOCC3)ccc2Cl)ncn1)c1nnc(CC2CCCC2)[nH]1 [Example 472, N-(6-(2-chloro-5-(2-(tetrahydro-2H-pyran-4-yl)ethoxy)phenyl)pyrimidin-4-yl)-5-(cyclopentylmethyl)-4H-1,2,4-triazole-3-carboxamide] | ≤ 100
O=C(Nc1cc(-c2cc(OCCC3CCOCC3)ccc2Cl)ncn1)c1nnc(CC2CCCCC2)[nH]1 [Example 473, N-(6-(2-chloro-5-(2-(tetrahydro-2H-pyran-4-yl)ethoxy)phenyl)pyrimidin-4-yl)-5-(cyclohexylmethyl)-4H-1,2,4-triazole-3-carboxamide] | ≤ 100
Cc1ccc(S(=O)(=O)CCCC(C)(C)O)cc1-c1ccnc(NC(=O)c2nnc(Cc3ccccc3)[nH]2)c1 [Example 474, 5-benzyl-N-(4-(5-((4-hydroxy-4-methylpentyl)sulfonyl)-2-methylphenyl)pyridin-2-yl)-4H-1,2,4-triazole-3-carboxamide] | 100 to 1000
Cc1ccc(S(=O)(=O)CCCC(C)(C)O)cc1-c1ccnc(NC(=O)c2nnc(CC3CCCC3)[nH]2)c1 [Example 475, 5-(cyclopentylmethyl)-N-(4-(5-((4-hydroxy-4-methylpentyl)sulfonyl)-2-methylphenyl)pyridin-2-yl)-4H-1,2,4-triazole-3-carboxamide] | ≤ 100
CC(C)(O)CCCOc1ccc(Cl)c(-c2ccnc(NC(=O)c3nnc(C(O)c4ccccc4F)[nH]3)c2)c1 (stereo not drawn) [Example 476, N-(4-(2-chloro-5-((4-hydroxy-4-methylpentyl)oxy)phenyl)pyridin-2-yl)-5-((2-fluorophenyl)(hydroxyl)methyl)-4H-1,2,4-triazole-3-carboxamide] | 100 to 1000
CC(C)(O)CCCOc1ccc(Cl)c(-c2ccnc(NC(=O)c3nnc([C@H](O)c4ccccc4)[nH]3)c2)c1 [Example 477, (R)-N-(4-(2-chloro-5-((4-hydroxy-4-methylpentyl)oxy)phenyl)pyridin-2-yl)-5-(hydroxyl(phenyl)methyl)-4H-1,2,4-triazole-3-carboxamide] | 1000 to 10000
CC(C)(O)CCCOc1ccc(Cl)c(-c2ccnc(NC(=O)c3nnc([C@@H](O)c4ccccc4)[nH]3)c2)c1 [Example 478, (S)-N-(4-(2-chloro-5-((4-hydroxy-4-methylpentyl)oxy)phenyl)pyridin-2-yl)-5-(hydroxyl(phenyl)methyl)-4H-1,2,4-triazole-3-carboxamide] | 100 to 1000
Cc1ccc(C2CCOCC2)cc1-c1ccnc(NC(=O)c2nnc(Cc3ccccc3)[nH]2)c1 [Example 479, 5-benzyl-N-(4-(2-methyl-5-(tetrahydro-2H-pyran-4-yl)phenyl)pyridin-2-yl)-4H-1,2,4-triazole-3-carboxamide] | 100 to 1000
COC(=O)C=Cc1ccc(C)c(-c2ccnc(NC(=O)c3nnc(Cc4ccccc4)[nH]3)c2)c1 [Example 480, Methyl 3-(3-(2-(5-benzyl-4H-1,2,4-triazol-3-carboxamido)pyridin-4-yl)-4-methylphenyl)acrylate] | ≤ 100
COC(=O)CCc1ccc(C)c(-c2ccnc(NC(=O)c3nnc(CC4CCCC4)[nH]3)c2)c1 [Example 481, Methyl 3-(3-(2-(5-(cyclopentylmethyl)-4H-1,2,4-triazol-3-carboxamido)pyridin-4-yl)-4-methylphenyl)propionate] | 100 to 1000
Cc1ccc(CCC(C)(C)O)cc1-c1ccnc(NC(=O)c2nnc(Cc3ccccc3)[nH]2)c1 [Example 482, 5-benzyl-N-(4-(5-(3-hydroxyl-3-methylbutyl)-2-methylphenyl)pyridin-2-yl)-4H-1,2,4-triazole-3-carboxamide] | ≤ 100
Cc1ccc(CCCO)cc1-c1ccnc(NC(=O)c2nnc(Cc3ccccc3)[nH]2)c1 [Example 483, 5-benzyl-N-(4-(5-(3-hydroxylpropyl)-2-methylphenyl)pyridin-2-yl)-4H-1,2,4-triazole-3-carboxamide] | 100 to 1000
COCCCC(O)c1ccc(C)c(-c2ccnc(NC(=O)c3nnc(Cc4ccccc4)[nH]3)c2)c1 (stereo not drawn) [Example 484, 5-benzyl-N-(4-(5-(1-hydroxyl-4-methoxybutyl)-2-methylphenyl)pyridin-2-yl)-4H-1,2,4-triazole-3-carboxamide] | ≤ 100
Cc1ccc(C(=O)CC2CCOCC2)cc1-c1ccnc(NC(=O)c2nnc(Cc3ccccc3)[nH]2)c1 [Example 485, 5-benzyl-N-(4-(2-methyl-5-(2-(tetrahydro-2H-pyran-4-yl)acetyl)phenyl)pyridin-2-yl)-4H-1,2,4-triazole-3-carboxamide] | 100 to 1000
Cc1ccc(C(=O)CC2CCOCC2)cc1-c1ccnc(NC(=O)c2nnc(CC3CCCC3)[nH]2)c1 [Example 486, 5-(cyclopentylmethyl)-N-(4-(2-methyl-5-(2-(tetrahydro-2H-pyran-4-yl)acetyl)phenyl)pyridin-2-yl)-4H-1,2,4-triazole-3-carboxamide] | ≤ 100
Cc1ccc(C(=O)NCCC(C)(C)O)cc1-c1ccnc(NC(=O)c2nnc(Cc3ccccc3)[nH]2)c1 [Example 487, 5-benzyl-N-(4-(5-((3-hydroxyl-3-methylbutyl)carbamoyl)-2-methylphenyl)pyridin-2-yl)-4H-1,2,4-triazole-3-carboxamide] | 100 to 1000
Cc1ccc(C(=O)NCCC(C)(C)O)cc1-c1ccnc(NC(=O)c2nnc(CC3CCCC3)[nH]2)c1 [Example 488, 5-(cyclopentylmethyl)-N-(4-(5-((3-hydroxyl-3-methylbutyl)carbamoyl)-2-methylphenyl)pyridin-2-yl)-4H-1,2,4-triazole-3-carboxamide] | ≤ 100

— patent publication US12435060B2, “Acylamino bridged heterocyclic compound, and composition and application thereof” (BEIJING SCITECH-MQ PHARMACEUTICALS LIMITED, priority 2019, dated 2025)
